Key:
[1] = molecular target: Death-associated protein kinase 3 (Homo sapiens) (UniProt O43293); conditions: Compound concentration 1000.0 nM
[2] = molecular target: Cyclin-dependent kinase 9 (Homo sapiens) (UniProt P50750); conditions: Compound concentration 1000.0 nM
[3] = molecular target: Tyrosine-protein kinase ITK/TSK (Homo sapiens) (UniProt Q08881); conditions: Compound concentration 1000.0 nM
[4] = molecular target: Interleukin-1 receptor-associated kinase 4 (Homo sapiens) (UniProt Q9NWZ3); conditions: Compound concentration 1000.0 nM
[5] = molecular target: Tyrosine-protein kinase Mer (Homo sapiens) (UniProt Q12866); conditions: Compound concentration 1000.0 nM
[6] = molecular target: Voltage-gated sodium channel (Na+ channel, site 2) (Rattus norvegicus, UniProt F1LQQ7+O08562+O88420+O88457+P04774+P04775+P08104+P15389+P15390+Q62968); test: Na+ channel (site 2) (rat) CEREP ligand profiling; assay type: protein assay; conditions: compound concentration 10 uM
[7] = molecular target: Interferon-induced, double-stranded RNA-activated protein kinase (Homo sapiens) (UniProt P19525); conditions: Compound concentration 1000.0 nM
[8] = molecular target: Myosin light chain kinase 2, skeletal/cardiac muscle (Homo sapiens) (UniProt Q9H1R3); conditions: Compound concentration 1000.0 nM
[9] = molecular target: Serine/threonine-protein kinase D3 (Homo sapiens) (UniProt O94806); conditions: Compound concentration 1000.0 nM
[10] = molecular target: Serine/threonine-protein kinase PAK 2 (Homo sapiens) (UniProt Q13177); conditions: Compound concentration 1000.0 nM
[11] = molecular target: Rho-associated protein kinase 2 (Homo sapiens) (UniProt O75116); conditions: Compound concentration 1000.0 nM
[12] = molecular target: Casein kinase I isoform delta (Homo sapiens) (UniProt P48730); conditions: Compound concentration 1000.0 nM
[13] = molecular target: Interleukin-1 receptor-associated kinase 1 (Homo sapiens) (UniProt P51617); conditions: Compound concentration 1000.0 nM
[14] = molecular target: Mitogen-activated protein kinase 3 (Homo sapiens) (UniProt P27361); conditions: Compound concentration 1000.0 nM
[15] = molecular target: Phosphatidylinositol 4-phosphate 3-kinase C2 domain-containing subunit beta (Homo sapiens) (UniProt O00750); conditions: Compound concentration 1000.0 nM
[16] = molecular target: cAMP-dependent protein kinase catalytic subunit PRKX (Homo sapiens) (UniProt P51817); conditions: Compound concentration 1000.0 nM
[17] = molecular target: Serine/threonine-protein kinase Nek11 (Homo sapiens) (UniProt Q8NG66); conditions: Compound concentration 1000.0 nM
[18] = molecular target: RAF proto-oncogene serine/threonine-protein kinase (Homo sapiens) (UniProt P04049); conditions: Compound concentration 1000.0 nM
[19] = molecular target: Tyrosine-protein kinase JAK1 (Homo sapiens) (UniProt P23458); conditions: Compound concentration 1000.0 nM
[20] = molecular target: Serine/threonine-protein kinase OSR1 (Homo sapiens) (UniProt O95747); conditions: Compound concentration 1000.0 nM
[21] = molecular target: Cyclin-dependent kinase 13 (Homo sapiens) (UniProt Q14004); conditions: Compound concentration 1000.0 nM
[22] = molecular target: Serine/threonine-protein kinase Sgk2 (Homo sapiens) (UniProt Q9HBY8); conditions: Compound concentration 1000.0 nM
[23] = molecular target: Tyrosine-protein kinase JAK2 (Homo sapiens) (UniProt O60674); conditions: Compound concentration 1000.0 nM
[24] = molecular target: Sigma intracellular receptor 2 (Homo sapiens) (UniProt Q5BJF2); conditions: Compound concentration 10.0 uM
[25] = molecular target: Inhibitor of nuclear factor kappa-B kinase subunit epsilon (Homo sapiens) (UniProt Q14164); conditions: Compound concentration 1000.0 nM
[26] = molecular target: Dual specificity protein kinase TTK (Homo sapiens) (UniProt P33981); conditions: Compound concentration 1000.0 nM
[27] = molecular target: Vascular endothelial growth factor receptor 2 (Homo sapiens) (UniProt P35968); conditions: Compound concentration 1000.0 nM
[28] = molecular target: RAC-gamma serine/threonine-protein kinase (Homo sapiens) (UniProt Q9Y243); conditions: Compound concentration 1000.0 nM
[29] = molecular target: Serine/threonine-protein kinase D1 (Homo sapiens) (UniProt Q15139); conditions: Compound concentration 1000.0 nM
[30] = molecular target: Alpha-1D adrenergic receptor (Homo sapiens) (UniProt P25100); conditions: Compound concentration 10.0 uM
[31] = molecular target: Aurora kinase A (Homo sapiens) (UniProt O14965); conditions: Compound concentration 1000.0 nM
[32] = molecular target: Alpha-1B adrenergic receptor (Homo sapiens) (UniProt P35368); conditions: Compound concentration 10.0 uM
[33] = molecular target: Serine/threonine-protein kinase PAK 1 (Homo sapiens) (UniProt Q13153); conditions: Compound concentration 1000.0 nM
[34] = molecular target: Dual specificity mitogen-activated protein kinase kinase 1 (Homo sapiens) (UniProt Q02750); conditions: Compound concentration 1000.0 nM
[35] = system: Mast/stem cell growth factor receptor Kit (Homo sapiens), P10721 [V559D,V654A]; conditions: Compound concentration 1000.0 nM
[36] = molecular target: Mitogen-activated protein kinase kinase kinase 3 (Homo sapiens) (UniProt Q99759); conditions: Compound concentration 1000.0 nM
[37] = molecular target: Phosphatidylinositol 4,5-bisphosphate 3-kinase catalytic subunit beta isoform (Homo sapiens) (UniProt P42338); conditions: Compound concentration 1000.0 nM
[38] = molecular target: Cyclin-dependent kinase 4 (Homo sapiens) (UniProt P11802); conditions: Compound concentration 1000.0 nM
[39] = molecular target: Transient receptor potential cation channel subfamily M member 6 (Homo sapiens) (UniProt Q9BX84); conditions: Compound concentration 1000.0 nM
[40] = molecular target: Calcium/calmodulin-dependent protein kinase type II subunit gamma (Homo sapiens) (UniProt Q13555); conditions: Compound concentration 1000.0 nM
[41] = molecular target: Mitogen-activated protein kinase kinase kinase 14 (Homo sapiens) (UniProt Q99558); conditions: Compound concentration 1000.0 nM
[42] = molecular target: Myosin light chain kinase, smooth muscle (Homo sapiens) (UniProt Q15746); conditions: Compound concentration 1000.0 nM
[43] = molecular target: Ephrin type-A receptor 4 (Homo sapiens) (UniProt P54764); conditions: Compound concentration 1000.0 nM
[44] = molecular target: Serine/threonine-protein kinase ULK1 (Homo sapiens) (UniProt O75385); conditions: Compound concentration 1000.0 nM

Phosphatidylinositol 4-phosphate 3-kinase C2 domain-containing subunit beta (Homo sapiens), sequence (O00750 whole entry, the tested form may be a part): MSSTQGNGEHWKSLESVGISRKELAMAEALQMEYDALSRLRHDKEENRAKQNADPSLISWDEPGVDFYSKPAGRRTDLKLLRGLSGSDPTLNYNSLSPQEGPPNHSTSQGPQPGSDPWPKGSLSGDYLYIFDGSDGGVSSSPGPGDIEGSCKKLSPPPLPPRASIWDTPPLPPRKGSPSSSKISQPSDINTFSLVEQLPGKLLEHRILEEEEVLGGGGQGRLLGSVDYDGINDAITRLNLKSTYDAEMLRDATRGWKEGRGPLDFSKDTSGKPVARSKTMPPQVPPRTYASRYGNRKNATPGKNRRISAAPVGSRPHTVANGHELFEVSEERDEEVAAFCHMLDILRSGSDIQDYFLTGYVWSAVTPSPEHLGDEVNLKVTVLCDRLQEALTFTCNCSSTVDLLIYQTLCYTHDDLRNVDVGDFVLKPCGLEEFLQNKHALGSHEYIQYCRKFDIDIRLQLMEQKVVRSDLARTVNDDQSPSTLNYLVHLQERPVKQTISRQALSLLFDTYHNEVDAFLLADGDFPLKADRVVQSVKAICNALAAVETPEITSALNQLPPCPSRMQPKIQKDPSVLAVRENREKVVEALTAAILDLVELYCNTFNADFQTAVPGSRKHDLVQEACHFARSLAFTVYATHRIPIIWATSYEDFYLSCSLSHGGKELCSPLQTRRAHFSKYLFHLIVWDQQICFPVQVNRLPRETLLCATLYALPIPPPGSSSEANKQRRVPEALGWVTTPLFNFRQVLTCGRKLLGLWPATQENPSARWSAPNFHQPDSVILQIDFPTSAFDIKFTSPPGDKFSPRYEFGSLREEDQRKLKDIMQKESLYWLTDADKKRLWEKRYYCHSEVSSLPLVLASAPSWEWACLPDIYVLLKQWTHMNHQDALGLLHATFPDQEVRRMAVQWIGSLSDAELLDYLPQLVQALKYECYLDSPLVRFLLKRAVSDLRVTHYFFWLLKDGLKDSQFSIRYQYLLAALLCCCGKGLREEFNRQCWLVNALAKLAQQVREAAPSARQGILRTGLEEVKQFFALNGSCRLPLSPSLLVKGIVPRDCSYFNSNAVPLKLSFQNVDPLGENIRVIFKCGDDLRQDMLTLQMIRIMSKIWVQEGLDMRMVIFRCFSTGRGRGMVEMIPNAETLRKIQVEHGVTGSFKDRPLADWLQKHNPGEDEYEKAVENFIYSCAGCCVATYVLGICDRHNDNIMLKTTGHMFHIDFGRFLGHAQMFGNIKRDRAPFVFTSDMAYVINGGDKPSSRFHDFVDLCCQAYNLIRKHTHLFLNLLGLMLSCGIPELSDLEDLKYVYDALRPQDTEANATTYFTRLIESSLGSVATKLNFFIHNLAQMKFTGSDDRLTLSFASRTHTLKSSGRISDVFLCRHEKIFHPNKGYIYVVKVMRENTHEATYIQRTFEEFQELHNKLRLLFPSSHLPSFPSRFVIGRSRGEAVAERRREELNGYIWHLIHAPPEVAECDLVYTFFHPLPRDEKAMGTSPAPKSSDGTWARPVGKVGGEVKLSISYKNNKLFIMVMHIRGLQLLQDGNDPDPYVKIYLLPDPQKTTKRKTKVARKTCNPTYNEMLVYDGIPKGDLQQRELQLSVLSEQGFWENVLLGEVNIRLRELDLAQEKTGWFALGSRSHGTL
Alpha-1B adrenergic receptor (Homo sapiens), sequence (P35368 whole entry): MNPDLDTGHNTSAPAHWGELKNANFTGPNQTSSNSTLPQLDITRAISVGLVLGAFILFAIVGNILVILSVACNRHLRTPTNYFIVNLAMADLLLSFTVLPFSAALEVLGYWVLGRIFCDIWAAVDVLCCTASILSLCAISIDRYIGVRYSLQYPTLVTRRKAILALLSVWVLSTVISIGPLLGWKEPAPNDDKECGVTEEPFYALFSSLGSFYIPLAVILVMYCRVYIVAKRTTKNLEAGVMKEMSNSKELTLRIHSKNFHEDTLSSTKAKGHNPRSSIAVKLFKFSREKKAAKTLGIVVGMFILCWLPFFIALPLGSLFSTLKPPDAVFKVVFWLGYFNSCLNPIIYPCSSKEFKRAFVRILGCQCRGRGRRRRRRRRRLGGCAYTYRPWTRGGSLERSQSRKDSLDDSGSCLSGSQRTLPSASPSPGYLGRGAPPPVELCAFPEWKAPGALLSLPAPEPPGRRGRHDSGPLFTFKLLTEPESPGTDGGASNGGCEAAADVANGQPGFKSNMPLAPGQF
cAMP-dependent protein kinase catalytic subunit PRKX (Homo sapiens), sequence (P51817 whole entry): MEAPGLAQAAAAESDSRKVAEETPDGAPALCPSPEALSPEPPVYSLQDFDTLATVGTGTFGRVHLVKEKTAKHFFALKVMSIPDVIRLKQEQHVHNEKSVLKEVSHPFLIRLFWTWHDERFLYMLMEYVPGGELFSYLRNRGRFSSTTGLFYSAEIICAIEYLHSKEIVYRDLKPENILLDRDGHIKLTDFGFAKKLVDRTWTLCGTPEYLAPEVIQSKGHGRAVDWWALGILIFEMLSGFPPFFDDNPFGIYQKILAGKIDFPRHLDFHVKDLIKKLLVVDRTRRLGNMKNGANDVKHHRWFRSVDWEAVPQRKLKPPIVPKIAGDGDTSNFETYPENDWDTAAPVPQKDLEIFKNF
Death-associated protein kinase 3 (Homo sapiens), sequence (O43293 whole entry, looked up): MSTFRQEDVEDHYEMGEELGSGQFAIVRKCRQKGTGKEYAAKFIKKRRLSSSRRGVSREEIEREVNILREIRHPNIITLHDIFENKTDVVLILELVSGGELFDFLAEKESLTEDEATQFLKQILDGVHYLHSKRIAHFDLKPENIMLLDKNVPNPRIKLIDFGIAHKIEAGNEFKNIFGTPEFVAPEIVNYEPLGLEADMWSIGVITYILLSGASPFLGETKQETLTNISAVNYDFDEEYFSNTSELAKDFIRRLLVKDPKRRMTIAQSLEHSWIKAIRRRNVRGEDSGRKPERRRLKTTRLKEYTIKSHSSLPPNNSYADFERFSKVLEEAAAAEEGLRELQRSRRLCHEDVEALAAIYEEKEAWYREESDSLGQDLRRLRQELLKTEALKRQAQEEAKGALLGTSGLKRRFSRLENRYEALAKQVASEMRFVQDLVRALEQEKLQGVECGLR
Mitogen-activated protein kinase 3 (Homo sapiens), sequence (P27361 whole entry, the tested form may be a part): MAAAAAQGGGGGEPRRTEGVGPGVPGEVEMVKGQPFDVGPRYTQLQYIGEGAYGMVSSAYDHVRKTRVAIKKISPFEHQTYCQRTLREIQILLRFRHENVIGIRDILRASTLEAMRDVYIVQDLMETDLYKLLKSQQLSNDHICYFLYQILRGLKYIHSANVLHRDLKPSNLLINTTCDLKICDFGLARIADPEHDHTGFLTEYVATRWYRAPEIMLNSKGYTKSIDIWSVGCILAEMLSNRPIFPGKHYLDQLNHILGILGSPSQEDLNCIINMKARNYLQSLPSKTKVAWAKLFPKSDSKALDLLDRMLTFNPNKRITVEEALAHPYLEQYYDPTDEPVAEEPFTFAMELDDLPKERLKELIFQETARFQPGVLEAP
Cyclin-dependent kinase 13 (Homo sapiens), sequence (Q14004 whole entry, looked up): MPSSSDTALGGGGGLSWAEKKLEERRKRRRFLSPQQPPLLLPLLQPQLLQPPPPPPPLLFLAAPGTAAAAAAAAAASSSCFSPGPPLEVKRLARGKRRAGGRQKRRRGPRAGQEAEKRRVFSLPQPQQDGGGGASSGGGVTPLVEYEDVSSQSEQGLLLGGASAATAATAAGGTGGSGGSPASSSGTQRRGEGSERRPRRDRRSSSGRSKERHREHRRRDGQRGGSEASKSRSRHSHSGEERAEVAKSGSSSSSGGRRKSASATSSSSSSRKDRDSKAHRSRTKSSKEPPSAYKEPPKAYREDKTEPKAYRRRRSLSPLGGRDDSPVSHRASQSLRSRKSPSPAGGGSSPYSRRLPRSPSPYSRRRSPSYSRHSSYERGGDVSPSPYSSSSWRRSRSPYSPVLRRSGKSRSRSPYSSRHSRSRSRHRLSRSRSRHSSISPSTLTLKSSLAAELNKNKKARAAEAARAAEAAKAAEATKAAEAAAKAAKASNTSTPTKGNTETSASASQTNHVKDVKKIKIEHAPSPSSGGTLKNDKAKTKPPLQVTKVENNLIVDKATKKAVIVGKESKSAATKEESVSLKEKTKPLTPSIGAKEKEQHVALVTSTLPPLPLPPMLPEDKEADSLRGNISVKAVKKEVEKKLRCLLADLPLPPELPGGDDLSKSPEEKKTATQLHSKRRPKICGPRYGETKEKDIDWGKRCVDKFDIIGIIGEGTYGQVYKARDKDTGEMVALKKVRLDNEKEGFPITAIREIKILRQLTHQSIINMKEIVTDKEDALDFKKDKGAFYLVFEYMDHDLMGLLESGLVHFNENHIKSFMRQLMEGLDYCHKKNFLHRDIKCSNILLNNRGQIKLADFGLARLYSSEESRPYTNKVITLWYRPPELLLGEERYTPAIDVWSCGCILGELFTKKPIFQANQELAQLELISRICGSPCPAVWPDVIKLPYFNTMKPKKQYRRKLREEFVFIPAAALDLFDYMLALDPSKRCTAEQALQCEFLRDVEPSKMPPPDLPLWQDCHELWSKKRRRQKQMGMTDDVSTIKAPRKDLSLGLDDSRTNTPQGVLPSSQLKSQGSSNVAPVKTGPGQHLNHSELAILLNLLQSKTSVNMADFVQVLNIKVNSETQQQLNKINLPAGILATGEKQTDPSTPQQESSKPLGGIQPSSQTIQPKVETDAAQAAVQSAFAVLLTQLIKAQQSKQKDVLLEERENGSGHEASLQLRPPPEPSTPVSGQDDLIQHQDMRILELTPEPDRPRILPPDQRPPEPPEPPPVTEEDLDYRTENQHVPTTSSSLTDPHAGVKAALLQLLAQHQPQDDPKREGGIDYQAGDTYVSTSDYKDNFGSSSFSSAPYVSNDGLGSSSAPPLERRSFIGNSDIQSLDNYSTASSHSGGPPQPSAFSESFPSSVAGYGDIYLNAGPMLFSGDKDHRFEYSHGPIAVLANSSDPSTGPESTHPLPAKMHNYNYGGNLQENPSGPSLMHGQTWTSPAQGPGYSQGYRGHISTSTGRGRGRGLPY
Sigma intracellular receptor 2 (Homo sapiens), sequence (Q5BJF2 whole entry): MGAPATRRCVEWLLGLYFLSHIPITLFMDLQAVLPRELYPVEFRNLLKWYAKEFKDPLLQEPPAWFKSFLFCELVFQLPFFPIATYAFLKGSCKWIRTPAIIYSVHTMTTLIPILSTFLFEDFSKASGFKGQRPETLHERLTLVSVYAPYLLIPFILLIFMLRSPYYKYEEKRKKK

## C[C@H](c1ccc(F)cc1)N(Cc1cccc(C(=O)O)c1)C(=O)c1cnc2ccccc2c1 [PF-05105679]
[1]
  residual activity: 100%
[2]
  residual activity: 89%
[3]
  residual activity: 84%
[4]
  residual activity: 95%
[5]
  residual activity: 95%
[6]
  inhibition at 10 µM: 32% (not active)
[7]
  residual activity: 100%
[8]
  residual activity: 100%
[9]
  residual activity: 100%
[10]
  residual activity: 100%
[11]
  residual activity: 100%
[12]
  residual activity: 92%
[13]
  residual activity: 89%
[14]
  residual activity: 100%
[15]
  residual activity: 90%
[16]
  residual activity: 100%
[17]
  residual activity: 82%
[18]
  residual activity: 100%
[19]
  residual activity: 100%
[20]
  residual activity: 100%
[21]
  residual activity: 98%
[22]
  residual activity: 93%
[23]
  residual activity: 88%
[24]
  inhibition: 3.36%
[25]
  residual activity: 79%
[26]
  residual activity: 100%
[27]
  residual activity: 100%
[28]
  residual activity: 100%
[29]
  residual activity: 100%
[30]
  inhibition: 27.3%
[31]
  residual activity: 100%
[32]
  inhibition: -0.5%
[33]
  residual activity: 100%
[34]
  residual activity: 100%
[35]
  residual activity: 100%
[36]
  residual activity: 100%
[37]
  residual activity: 100%
[38]
  residual activity: 100%
[39]
  residual activity: 100%
[40]
  residual activity: 94%
[41]
  residual activity: 100%
[42]
  residual activity: 76%
[43]
  residual activity: 92%
[44]
  residual activity: 86%
